Holding throughout (assay): relative viability (nuclei count vs DMSO), 5 days (fraction); higher = more cells survive
Compound in the experiment “Serdemetan + Lapatinib”: c1ccc2c(CCNc3ccc(Nc4ccncc4)cc3)c[nH]c2c1 [Serdemetan] + CS(=O)(=O)CCNCc1ccc(-c2ccc3ncnc(Nc4ccc(OCc5cccc(F)c5)c(Cl)c4)c3c2)o1 [Lapatinib] (partner 2 µM)
In short, it runs like this: (§1)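 Lung cancer cell lines were seeded in 1536-well plates and dosed by pin tool the next day, with either a single drug or a fixed anchor-drug dose combined with five library-drug doses (not always all listed) spaced in √10 steps. Five days later, one step fixed the cells and stained their nuclei (final 0.05% Triton X-100, 1% formaldehyde, 1 ug/ml Hoechst), and nuclei were counted on 4× images. Relative viability is the nuclei count in treated wells divided by the count in vehicle wells, and each value is the median of duplicate plates.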

Compound in the experiment “Selisistat + OSI-027”: C1CC(C2=C(C1)C3=C(N2)C=CC(=C3)Cl)C(=O)N [Selisistat] + COc1cccc2cc(-c3nc([C@H]4CC[C@H](C(=O)O)CC4)n4ncnc(N)c34)[nH]c12 [OSI-027] (partner 0.5 µM)
The method in brief:
as §1

Compound in the experiment “Serdemetan + AZD7762”: c1ccc2c(CCNc3ccc(Nc4ccncc4)cc3)c[nH]c2c1 [Serdemetan] + NC(=O)Nc1cc(-c2cccc(F)c2)sc1C(=O)N[C@H]1CCCNC1 [AZD7762] (partner 0.2 µM)
The method in brief: as §1

Compound in the experiment “Serdemetan + Luminespib”: c1ccc2c(CCNc3ccc(Nc4ccncc4)cc3)c[nH]c2c1 [Serdemetan] + CCNC(=O)c1noc(-c2cc(C(C)C)c(O)cc2O)c1-c1ccc(CN2CCOCC2)cc1 [Luminespib] (partner 0.01 µM)
The method in brief: as §1

As for LCLC-97TM1, the relative viability in the experiment with Serdemetan + Lapatinib (first compound 0.04 µM) is 0.776; with Serdemetan + Lapatinib (first compound 0.1265 µM), 1.16; in the experiment with Serdemetan + Lapatinib (first compound 0.4 µM), 1.11; with Serdemetan + Lapatinib (first compound 1.265 µM) it was 0.674; with Serdemetan + Lapatinib (first compound 4 µM) it was 0.87; in the experiment with Selisistat + OSI-027 (first compound 0.4 µM), 0.59. In addition, the relative viability came to 0.653 in the experiment with Selisistat + OSI-027 (first compound 1.265 µM); 0.553 in the experiment with Selisistat + OSI-027 (first compound 12.65 µM); 0.619 with Selisistat + OSI-027 (first compound 40 µM); 0.304 in the experiment with Serdemetan + AZD7762 (first compound 0.04 µM); 0.232 in the experiment with Serdemetan + AZD7762 (first compound 0.1265 µM); 0.255 with Serdemetan + AZD7762 (first compound 0.4 µM). Moreover, the relative viability with Serdemetan + AZD7762 (first compound 1.265 µM) was 0.184; with Serdemetan + AZD7762 (first compound 4 µM), 0.211; with Serdemetan + Luminespib (first compound 0.04 µM), 0.739; with Serdemetan + Luminespib (first compound 0.1265 µM), 0.738; in the experiment with Serdemetan + Luminespib (first compound 0.4 µM), 0.653; in the experiment with Serdemetan + Luminespib (first compound 4 µM), 0.596.
LK-2: the relative viability with Serdemetan + Lapatinib (first compound 0.04 µM) amounted to 0.899; with Serdemetan + Lapatinib (first compound 0.1265 µM), 0.873; with Serdemetan + Lapatinib (first compound 0.4 µM), 1.03; with Serdemetan + Lapatinib (first compound 1.265 µM) it was 0.884; with Serdemetan + Lapatinib (first compound 4 µM), 0.757; in the experiment with Selisistat + OSI-027 (first compound 0.4 µM) it was 0.196. For the same cell line, the relative viability was determined as 0.179 with Selisistat + OSI-027 (first compound 1.265 µM); 0.174 in the experiment with Selisistat + OSI-027 (first compound 4 µM); 0.179 in the experiment with Selisistat + OSI-027 (first compound 12.65 µM); 0.255 with Selisistat + OSI-027 (first compound 40 µM); 0.454 with Serdemetan + AZD7762 (first compound 0.04 µM); 0.304 with Serdemetan + AZD7762 (first compound 0.1265 µM). Further, the relative viability in the experiment with Serdemetan + AZD7762 (first compound 0.4 µM) came out at 0.357; in the experiment with Serdemetan + AZD7762 (first compound 1.265 µM), 0.269; with Serdemetan + AZD7762 (first compound 4 µM), 0.251; with Serdemetan + Luminespib (first compound 0.04 µM), 0.18; in the experiment with Serdemetan + Luminespib (first compound 0.1265 µM) it was 0.172; with Serdemetan + Luminespib (first compound 0.4 µM), 0.191. Moreover, the relative viability in the experiment with Serdemetan + Luminespib (first compound 1.265 µM) stood at 0.161; with Serdemetan + Luminespib (first compound 4 µM) it was 0.2.
Take LOU-NH91: the relative viability with Serdemetan + Lapatinib (first compound 0.04 µM) came to 0.773; in the experiment with Serdemetan + Lapatinib (first compound 0.1265 µM), 0.83; with Serdemetan + Lapatinib (first compound 1.265 µM), 0.606; with Serdemetan + Lapatinib (first compound 4 µM) it was 0.83; in the experiment with Selisistat + OSI-027 (first compound 0.4 µM), 0.814; with Selisistat + OSI-027 (first compound 1.265 µM) it was 0.715. Moreover, the relative viability came out at 0.675 in the experiment with Selisistat + OSI-027 (first compound 4 µM); 0.756 with Selisistat + OSI-027 (first compound 12.65 µM); 0.708 with Selisistat + OSI-027 (first compound 40 µM); 0.768 with Serdemetan + AZD7762 (first compound 0.04 µM); 0.746 with Serdemetan + AZD7762 (first compound 0.1265 µM); 0.79 with Serdemetan + AZD7762 (first compound 4 µM). Also, the relative viability with Serdemetan + Luminespib (first compound 0.04 µM) worked out at 0.282; in the experiment with Serdemetan + Luminespib (first compound 0.1265 µM), 0.334; with Serdemetan + Luminespib (first compound 0.4 µM), 0.347; with Serdemetan + Luminespib (first compound 1.265 µM), 0.296; in the experiment with Serdemetan + Luminespib (first compound 4 µM), 0.299.
Turning to LU99A, the relative viability with Serdemetan + Lapatinib (first compound 0.04 µM) stood at 1.03; with Serdemetan + Lapatinib (first compound 0.1265 µM), 0.927; in the experiment with Serdemetan + Lapatinib (first compound 0.4 µM), 1.07; in the experiment with Serdemetan + Lapatinib (first compound 1.265 µM) it was 0.363; in the experiment with Serdemetan + Lapatinib (first compound 4 µM) it was 0.229; with Selisistat + OSI-027 (first compound 0.4 µM), 0.345. In addition, the relative viability came to 0.283 with Selisistat + OSI-027 (first compound 1.265 µM); 0.344 in the experiment with Selisistat + OSI-027 (first compound 4 µM); 0.288 with Selisistat + OSI-027 (first compound 12.65 µM); 0.297 with Selisistat + OSI-027 (first compound 40 µM); 0.315 with Serdemetan + AZD7762 (first compound 0.04 µM); 0.347 in the experiment with Serdemetan + AZD7762 (first compound 0.1265 µM). The relative viability with Serdemetan + AZD7762 (first compound 0.4 µM) stood at 0.212; with Serdemetan + AZD7762 (first compound 1.265 µM) it was 0.117; in the experiment with Serdemetan + AZD7762 (first compound 4 µM) it was 0.14; with Serdemetan + Luminespib (first compound 0.04 µM) it was 0.26; with Serdemetan + Luminespib (first compound 0.1265 µM) it was 0.259; with Serdemetan + Luminespib (first compound 0.4 µM) it was 0.185. Also, the relative viability is 0.182 in the experiment with Serdemetan + Luminespib (first compound 1.265 µM) and 0.193 with Serdemetan + Luminespib (first compound 4 µM).

For the origin of these results see the supplement of paper PMC10307832.
